Results published in patent US6503307B1, “Ink set, printing method, ink, printed article, printing apparatus, ink cartridge, recording unit, and process of forming polymeric compound films” (Canon Kabushiki Kaisha, priority 1999, dated 2003).

Experiments:
[1] = Reactivity: time for gel formation on mixing 50% solutions; assay type: physicochemical; settings: 50% solution of Group B compound with aqueous 50% solution of Compound A-1
[2] = Solubility in water; assay type: physicochemical; settings: highest concentration forming a uniform transparent aqueous solution
From the text: In Table 1, the water solubility is shown by the highest concentration of the compound for forming a uniform transparent aqueous solution.

Solubility [2] [%] | Compound | Time for gel formation [1] [s]
20 | NC1C(O)OC(CO)C(O)C1O (stereo not drawn) [Compound B-4] | 600
>30 | SCC(S)CS [Compound B-8] | 600
>30 | CCC(CS)(CS)CS [Compound B-10] | 600
